From patent US20230086703A1, “N-(4-(5-chloropyridin-3-yl)phenyl)-2-(2-(cyclopropanesulfonamido)pyrimidin-4-yl) butanamide derivatives and related compounds as human CTPS1 inhibitors for the treatment of proliferative diseases” (Step Pharma S.A.S., priority 2019, published 2023)

These compounds were tested against T1, human CTPS1 (Homo sapiens, UniProt P17812) (assay: Human CTPS1 enzyme inhibition, ADP-Glo Max assay). Details: ADP-Glo Max assay; Table 10; read-out: Human CTPS1 Enzyme Inhibition, IC50 grouped by potency range (CTPS1).
T1 construct: FLAG (with GG linker); His8 (with GG linker); purchased Proteros biostructures GmbH
T1 sequence (P17812 1-591): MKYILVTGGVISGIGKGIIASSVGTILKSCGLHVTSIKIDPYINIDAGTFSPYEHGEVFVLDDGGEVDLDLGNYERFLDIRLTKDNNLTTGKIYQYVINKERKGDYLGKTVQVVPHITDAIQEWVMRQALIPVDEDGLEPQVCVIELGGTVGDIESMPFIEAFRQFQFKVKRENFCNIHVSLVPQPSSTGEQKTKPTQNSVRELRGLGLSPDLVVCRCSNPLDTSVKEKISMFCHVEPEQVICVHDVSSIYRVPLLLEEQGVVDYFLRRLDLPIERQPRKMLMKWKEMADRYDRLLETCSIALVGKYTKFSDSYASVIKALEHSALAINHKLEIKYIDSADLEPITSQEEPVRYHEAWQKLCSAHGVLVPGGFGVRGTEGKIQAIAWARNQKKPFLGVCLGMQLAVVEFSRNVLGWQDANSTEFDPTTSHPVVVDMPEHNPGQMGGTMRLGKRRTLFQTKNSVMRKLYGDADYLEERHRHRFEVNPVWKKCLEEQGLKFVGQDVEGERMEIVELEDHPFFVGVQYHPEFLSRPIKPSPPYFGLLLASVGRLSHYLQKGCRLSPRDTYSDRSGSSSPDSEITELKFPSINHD
Format: biochemical
How it was run: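 Enzyme preincubated with compound for 10 min at 25 °C in 50 mM Tris pH 8.0, 10 mM MgCl2, 0.01% Tween-20, 2 mM L-cysteine. ATP-to-ADP conversion detected by ADP-Glo Max luminescence after 60 min depletion and 60 min development steps. Percentage inhibition calculated per concentration.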

SMILES	IC50
CC(C)(C(=O)Nc1ccc(-c2cccc(N3CCOCC3)c2)cn1)c1csc(NS(=O)(=O)C2CC2)n1 [T238, 2-(2-(cyclopropanesulfonamido)thiazol-4-yl)-2-methyl-N-(5-(3-morpholinophenyl)pyridin-2-yl)propanamide]	1000 to 10000 nM
COc1ncc(-c2ccc(NC(=O)Cc3csc(NS(=O)(=O)C4CC4)n3)cc2)cn1 [T242, 2-(2-(cyclopropanesulfonamido)thiazol-4-yl)-N-(4-(2-methoxypyrimidin-5-yl)phenyl)acetamide]	1000 to 10000 nM
CC(C)(C)c1ccc(-c2ccc(NC(=O)Cc3csc(NS(=O)(=O)C4CC4)n3)cc2)cc1 [T243, N-(4′-(tert-butyl)-[1,1′-biphenyl]-4-yl)-2-(2-(cyclopropanesulfonamido)thiazol-4-yl)acetamide]	1000 to 10000 nM
CC(C)(C(=O)Nc1ccc(-c2cccnc2C(F)(F)F)cc1)c1csc(NS(=O)(=O)C2CC2)n1 [T248, 2-(2-(cyclopropanesulfonamido)thiazol-4-yl)-2-methyl-N-(4-(2-(trifluoromethyl)pyridin-3-yl)phenyl)propanamide]	1000 to 10000 nM
COc1nccc(C)c1-c1ccc(NC(=O)C(C)(C)c2csc(NS(=O)(=O)C3CC3)n2)cc1 [T250, 2-(2-(cyclopropanesulfonamido)thiazol-4-yl)-N-(4-(2-methoxy-4-methylpyridin-3-yl)phenyl)-2-methylpropanamide]	1000 to 10000 nM
COc1ncc(-c2ccc(NC(=O)C(C)(C)c3csc(NS(=O)(=O)C4CC4)n3)cc2)cc1C [T251, 2-(2-(cyclopropanesulfonamido)thiazol-4-yl)-N-(4-(6-methoxy-5-methylpyridin-3-yl)phenyl)-2-methylpropanamide]	1000 to 10000 nM
CC(C)(C(=O)Nc1ccc(-c2cnccc2C(F)(F)F)cc1)c1csc(NS(=O)(=O)C2CC2)n1 [T255, 2-(2-(cyclopropanesulfonamido)thiazol-4-yl)-2-methyl-N-(4-(4-(trifluoromethyl)pyridin-3-yl)phenyl)propanamide]	1000 to 10000 nM
CN(C)c1cncc(-c2ccc(NC(=O)C(C)(C)c3csc(NS(=O)(=O)C4CC4)n3)cc2)c1 [T257, 2-(2-(cyclopropanesulfonamido)thiazol-4-yl)-N-(4-(5-(dimethylamino)pyridin-3-yl)phenyl)-2-methylpropanamide]	100 to 1000 nM
COc1cc(-c2cncc(C)c2)ccc1NC(=O)C(C)(C)c1csc(NS(=O)(=O)C2CC2)n1 [T258, 2-(2-(cyclopropanesulfonamido)thiazol-4-yl)-N-(2-methoxy-4-(5-methylpyridin-3-yl)phenyl)-2-methylpropanamide]	100 to 1000 nM
COc1ccc(-c2ccc(NC(=O)Cc3csc(NS(=O)(=O)C4CC4)n3)cc2)cn1 [T260, 2-(2-(cyclopropanesulfonamido)thiazol-4-yl)-N-(4-(6-methoxypyridin-3-yl)phenyl)acetamide]	1000 to 10000 nM
CC(C)(C(=O)Nc1ccc(-c2cncc(C#N)n2)cn1)c1csc(NS(=O)(=O)C2CC2)n1 [T263, N-(5-(6-cyanopyrazin-2-yl)pyridin-2-yl)-2-(2-(cyclopropanesulfonamido)thiazol-4-yl)-2-methylpropanamide]	1000 to 10000 nM
CC(C)(C(=O)Nc1ccc(-c2cncnc2)cn1)c1csc(NS(=O)(=O)C2CC2)n1 [T264, 2-(2-(cyclopropanesulfonamido)thiazol-4-yl)-2-methyl-N-(5-(pyrimidin-5-yl)pyridin-2-yl)propanamide]	100 to 1000 nM
CC(C)(C(=O)Nc1ccc(-c2cccc(Cl)n2)cc1)c1csc(NS(=O)(=O)C2CC2)n1 [T268, N-(4-(6-chloropyridin-2-yl)phenyl)-2-(2-(cyclopropanesulfonamido)thiazol-4-yl)-2-methylpropanamide]	100 to 1000 nM
COc1cccc(-c2ccc(NC(=O)C(C)(C)c3csc(NS(=O)(=O)C4CC4)n3)cc2)n1 [T269, 2-(2-(cyclopropanesulfonamido)thiazol-4-yl)-N-(4-(6-methoxypyridin-2-yl)phenyl)-2-methylpropanamide]	100 to 1000 nM
CC(C)(C(=O)Nc1ccc(-c2cccc(C(F)(F)F)n2)cc1)c1csc(NS(=O)(=O)C2CC2)n1 [T270, 2-(2-(cyclopropanesulfonamido)thiazol-4-yl)-2-methyl-N-(4-(6-(trifluoromethyl)pyridin-2-yl)phenyl)propanamide]	100 to 1000 nM
COc1ccnc(-c2ccc(NC(=O)C(C)(C)c3csc(NS(=O)(=O)C4CC4)n3)cc2)c1 [T271, 2-(2-(cyclopropanesulfonamido)thiazol-4-yl)-N-(4-(4-methoxypyridin-2-yl)phenyl)-2-methylpropanamide]	1000 to 10000 nM

The remaining lines, values ahead:

IC50	SMILES
100 to 1000 nM	CC(C)(C(=O)Nc1ccc(-c2ccccc2)nc1)c1csc(NS(=O)(=O)C2CC2)n1 [T239, 2-(2-(cyclopropanesulfonamido)thiazol-4-yl)-2-methyl-N-(6-phenylpyridin-3-yl)propanamide]
100 to 1000 nM	CC(C)(C(=O)Nc1ccc(-c2cccnc2F)cc1)c1csc(NS(=O)(=O)C2CC2)n1 [T240, 2-(2-(cyclopropanesulfonamido)thiazol-4-yl)-N-(4-(2-fluoropyridin-3-yl)phenyl)-2-methylpropanamide]
100 to 1000 nM	CC(C)(C(=O)Nc1ccc(-c2cncc(CO)c2)cc1)c1csc(NS(=O)(=O)C2CC2)n1 [T241, 2-(2-(cyclopropanesulfonamido)thiazol-4-yl)-N-(4-(5-(hydroxymethyl)pyridin-3-yl)phenyl)-2-methylpropanamide]
100 to 1000 nM	COc1ccccc1-c1ccc(NC(=O)Cc2csc(NS(=O)(=O)C3CC3)n2)cc1 [T246, 2-(2-(cyclopropanesulfonamido)thiazol-4-yl)-N-(2′-methoxy-[1,1′-biphenyl]-4-yl)acetamide]
100 to 1000 nM	O=C(Cc1csc(NS(=O)(=O)C2CC2)n1)Nc1ccc(-c2cncnc2)cc1 [T247, 2-(2-(cyclopropanesulfonamido)thiazol-4-yl)-N-(4-(pyrimidin-5-yl)phenyl)acetamide]
< 100 nM	Cc1cncc(-c2ccc(NC(=O)C(C)(C)c3csc(NS(=O)(=O)C4CC4)n3)nc2)c1 [T249, 2-(2-(cyclopropanesulfonamido)thiazol-4-yl)-2-methyl-N-(5′-methyl-[3,3′-bipyridin]-6-yl)propanamide]
< 100 nM	CC(C)(C(=O)Nc1ccc(-c2cncc(Cl)c2)cc1)c1csc(NS(=O)(=O)C2CC2)n1 [T252, N-(4-(5-chloropyridin-3-yl)phenyl)-2-(2-(cyclopropanesulfonamido)thiazol-4-yl)-2-methylpropanamide]
< 100 nM	CC(C)(C(=O)Nc1ccc(-c2cncc(F)c2)cc1)c1csc(NS(=O)(=O)C2CC2)n1 [T253, 2-(2-(cyclopropanesulfonamido)thiazol-4-yl)-N-(4-(5-fluoropyridin-3-yl)phenyl)-2-methylpropanamide]
100 to 1000 nM	Cc1ccncc1-c1ccc(NC(=O)C(C)(C)c2csc(NS(=O)(=O)C3CC3)n2)cc1 [T254, 2-(2-(cyclopropanesulfonamido)thiazol-4-yl)-2-methyl-N-(4-(4-methylpyridin-3-yl)phenyl)propanamide]
< 100 nM	COc1cc(-c2cncc(Cl)c2)ccc1NC(=O)C(C)(C)c1csc(NS(=O)(=O)C2CC2)n1 [T256, N-(4-(5-chloropyridin-3-yl)-2-methoxyphenyl)-2-(2-(cyclopropanesulfonamido)thiazol-4-yl)-2-methylpropanamide]
< 100 nM	COc1cc(-c2cncc(C(F)(F)F)c2)ccc1NC(=O)C(C)(C)c1csc(NS(=O)(=O)C2CC2)n1 [T259, 2-(2-(cyclopropanesulfonamido)thiazol-4-yl)-N-(2-methoxy-4-(5-(trifluoromethyl)pyridin-3-yl)phenyl)-2-methylpropanamide]
< 100 nM	CC(C)(C(=O)Nc1ccc(-c2cncc(F)c2)cn1)c1csc(NS(=O)(=O)C2CC2)n1 [T261, 2-(2-(cyclopropanesulfonamido)thiazol-4-yl)-N-(5′-fluoro-[3,3′-bipyridin]-6-yl)-2-methylpropanamide]
< 100 nM	CC(C)(C(=O)Nc1ccc(-c2cncc(Cl)n2)cn1)c1csc(NS(=O)(=O)C2CC2)n1 [T262, N-(5-(6-chloropyrazin-2-yl)pyridin-2-yl)-2-(2-(cyclopropanesulfonamido)thiazol-4-yl)-2-methylpropanamide]
< 100 nM	COc1cncc(-c2ccc(NC(=O)C(C)(C)c3csc(NS(=O)(=O)C4CC4)n3)cc2)n1 [T265, 2-(2-(cyclopropanesulfonamido)thiazol-4-yl)-N-(4-(6-methoxypyrazin-2-yl)phenyl)-2-methylpropanamide]
< 100 nM	Cc1cncc(-c2ccc(NC(=O)C(C)(C)c3csc(NS(=O)(=O)C4CC4)n3)cc2)n1 [T266, 2-(2-(cyclopropanesulfonamido)thiazol-4-yl)-2-methyl-N-(4-(6-methylpyrazin-2-yl)phenyl)propanamide]
< 100 nM	CC(C)(C(=O)Nc1ccc(-c2cncc(C(F)(F)F)n2)cc1)c1csc(NS(=O)(=O)C2CC2)n1 [T267, 2-(2-(cyclopropanesulfonamido)thiazol-4-yl)-2-methyl-N-(4-(6-(trifluoromethyl)pyrazin-2-yl)phenyl)propanamide]
